The term IC50 denotes the point on the concentration scale where inhibition reaches its midpoint.

This assay addresses T1, Dihydroorotate dehydrogenase (quinone), mitochondrial [30-395] (Homo sapiens, UniProt Q02127).
T1 construct: 30-395
Put plainly: DHODH Inhibition Assay. Particulars: pH 8; 25 °C. On the procedure:
The assays were carried out by using a colorimetric DCIP method, which uses the colorimetric reagent 2, 6-dichlorophenolindophenol as the final electron acceptor. DCIP reduction is stoichiometrically equivalent to oxidation of dihydroorotate. Changes in absorbance were quantified in triplicate on a plate reader and data were analyzed to measure the reduction of DCIP as a decrease in absorbance at 610 nm. […] Each data point was recorded in triplicates on a single measurement day.

T1 sequence (Q02127 30-395): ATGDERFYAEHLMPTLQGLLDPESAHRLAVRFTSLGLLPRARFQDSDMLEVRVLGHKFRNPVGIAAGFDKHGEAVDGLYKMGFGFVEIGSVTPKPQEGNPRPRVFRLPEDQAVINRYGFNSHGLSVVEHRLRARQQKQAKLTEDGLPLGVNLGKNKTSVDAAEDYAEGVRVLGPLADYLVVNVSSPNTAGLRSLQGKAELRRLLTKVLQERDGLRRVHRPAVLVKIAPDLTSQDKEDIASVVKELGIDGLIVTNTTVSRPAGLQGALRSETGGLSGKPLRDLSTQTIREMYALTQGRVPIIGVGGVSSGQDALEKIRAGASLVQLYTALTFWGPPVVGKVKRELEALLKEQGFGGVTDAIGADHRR

Molecule `O=C(O)c1cscc1C(=O)Nc1c(F)cc(-c2cccc(OC(F)(F)F)c2)cc1F` [4-({2,6-difluoro-4-[3-(trifluoromethoxy)phenyl]phenyl}carbamoyl)thiophene-3-carboxylic acid] showed an IC50 of 10 nM.

The record behind these values is BindingDB's records for doi:10.1016/j.bmcl.2005.10.011 (4Sc, 2006).
